Measured values as given in ChEMBL document CHEMBL1208773, “Improving the permeability of the hydroxyethylamine BACE-1 inhibitors: structure-activity relationship of P2' substituents” (Bioorg Med Chem Lett, 2010).

Key:
[1] = Lipophilicity, log P of the compound; format: physicochemical; conditions: octanol/water
[2] = Dissociation constant, pKa of the compound; format: physicochemical

| Compound | logP [1] | pKa [2] |
| --- | --- | --- |
| CC(=O)N[C@@H](Cc1cc(F)cc(F)c1)[C@H](O)CNC1(c2cccc(C3CCOC3)c2)CCCCC1 (some centres undefined) | 4 | – |
| CC(=O)N[C@@H](Cc1cc(F)cc(F)c1)[C@H](O)CNC1(c2cccc(C(C)(C)C)c2)CCCCC1 | 4.8 | 8.1 |
| CC(=O)N[C@@H](Cc1cc(F)cc(F)c1)[C@H](O)CNC1(c2cccc(C3CCCO3)c2)CCCCC1 (some centres undefined) | 4 | – |
